Assay results as given in US20200079793A1, “COMPOUNDS AND METHODS FOR MODULATING ADENOSINE A2B RECEPTOR AND ADENOSINE A2A RECEPTOR” (CORVUS PHARMACEUTICALS, INC., priority 2018, published 2020).
pIC50: −log10 of the molar value.

Tests used:
A3R = target: T1, A3R (Homo sapiens, UniProt P0DMS8); experiment: Activity assay of adenosine receptor modulators, A3R cAMP (Table 1); format: cell-based
T1 sequence (P0DMS8 1-318): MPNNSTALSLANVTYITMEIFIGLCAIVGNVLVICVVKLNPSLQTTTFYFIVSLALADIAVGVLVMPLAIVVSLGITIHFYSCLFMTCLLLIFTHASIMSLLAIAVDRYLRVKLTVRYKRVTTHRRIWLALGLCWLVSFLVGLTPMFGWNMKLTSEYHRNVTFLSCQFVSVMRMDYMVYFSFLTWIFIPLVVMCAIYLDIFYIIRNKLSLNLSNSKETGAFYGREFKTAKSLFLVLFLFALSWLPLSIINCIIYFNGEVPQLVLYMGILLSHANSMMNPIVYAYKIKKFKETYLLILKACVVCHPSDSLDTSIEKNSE
Description: (§1) Compounds (e.g., adenosine receptor modulators) were tested for its biological activity. The assay results in Table 1 indicate (+ means >1 μM; ++ means 100 nM to 1 μM; +++ means <100 nM).

Adenosine A2B Receptor = target: T2, Adenosine A2B Receptor (Homo sapiens, UniProt P29275); experiment: Activity assay of adenosine receptor modulators, Adenosine A2B Receptor (Table 1); format: biochemical; conditions: cAMP; read-out: A2BR cAMP IC50
T2 sequence (P29275 1-332): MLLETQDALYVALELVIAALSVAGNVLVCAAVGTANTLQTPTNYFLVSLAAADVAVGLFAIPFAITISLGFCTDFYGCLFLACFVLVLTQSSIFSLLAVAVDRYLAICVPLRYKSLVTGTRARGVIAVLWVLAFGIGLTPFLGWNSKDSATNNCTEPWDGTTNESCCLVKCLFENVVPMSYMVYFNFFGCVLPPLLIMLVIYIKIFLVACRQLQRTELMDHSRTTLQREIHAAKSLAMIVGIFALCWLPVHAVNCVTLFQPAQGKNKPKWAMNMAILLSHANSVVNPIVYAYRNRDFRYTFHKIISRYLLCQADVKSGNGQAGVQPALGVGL
Description: as §1

Adenosine A2A Receptor = Adenosine A2A Receptor (Homo sapiens, UniProt P29274); experiment: Activity assay of adenosine receptor modulators, Adenosine A2A Receptor (Table 1); format: biochemical; conditions: cAMP; read-out: A2AR cAMP IC50
Description: as §1

A1R = target: T3, A1R (Homo sapiens, UniProt P30542); experiment: Activity assay of adenosine receptor modulators, A1R cAMP (Table 1); format: cell-based
T3 sequence (P30542 1-326): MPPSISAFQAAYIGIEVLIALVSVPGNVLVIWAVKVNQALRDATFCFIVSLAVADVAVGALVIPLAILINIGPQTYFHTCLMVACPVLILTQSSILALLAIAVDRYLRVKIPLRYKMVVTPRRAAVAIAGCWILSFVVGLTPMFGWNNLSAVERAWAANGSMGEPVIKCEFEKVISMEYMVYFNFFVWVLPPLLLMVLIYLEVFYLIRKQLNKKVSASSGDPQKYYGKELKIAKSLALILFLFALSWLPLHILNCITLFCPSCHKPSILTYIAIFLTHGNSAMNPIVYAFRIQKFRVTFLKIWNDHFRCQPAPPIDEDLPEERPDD
Description: as §1

Adenosine A2A Receptor, sequence (P29274 whole entry): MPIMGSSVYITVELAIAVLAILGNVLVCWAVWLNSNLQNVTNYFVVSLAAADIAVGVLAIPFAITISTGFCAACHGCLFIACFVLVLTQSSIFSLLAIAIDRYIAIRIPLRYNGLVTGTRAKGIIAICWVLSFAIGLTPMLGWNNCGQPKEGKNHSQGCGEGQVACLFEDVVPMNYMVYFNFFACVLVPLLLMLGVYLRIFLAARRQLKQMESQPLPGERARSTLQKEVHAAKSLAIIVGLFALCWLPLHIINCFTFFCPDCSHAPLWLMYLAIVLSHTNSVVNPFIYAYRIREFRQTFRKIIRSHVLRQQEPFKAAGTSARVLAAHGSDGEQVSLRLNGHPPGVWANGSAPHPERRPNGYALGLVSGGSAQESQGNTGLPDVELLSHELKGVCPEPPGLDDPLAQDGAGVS

| SMILES | pIC50 (A3R) | pIC50 (Adenosine A2B Receptor) | pIC50 (Adenosine A2A Receptor) | pIC50 (A1R) |
| --- | --- | --- | --- | --- |
| COCCNC(=O)c1nc(N[C@@H](C)c2cncc(F)c2)nc2nc(C)sc12 [Example 25, (S)-5-((1-(5-Fluoropyridin-3-yl)ethyl)amino)-N-(2-methoxyethyl)-2-methylthiazolo[4,5-d]pyrimidine-7-carboxamide] | < 6.00 | > 7.00 | 6.00 to 7.00 | < 6.00 |
| CC(=O)N[C@H]1CCN(C(=O)c2nc(N[C@@H](C)c3cncc(F)c3)nc3nc(C)sc23)C1 [Example 29, N—((S)-1-(5-(((S)-1-(5-Fluoropyridin-3-yl)ethyl)amino)-2-methylthiazolo[4,5-d]pyrimidine-7-carbonyl)pyrrolidin-3-yl)acetamide] | 6.00 to 7.00 | > 7.00 | 6.00 to 7.00 | < 6.00 |
| Cc1nc2nc(N[C@@H](C)c3cccnc3)nc(C(=O)N3CC(NC(=O)c4cccc(F)c4)C3)c2s1 [Example 74, 3-Fluoro-N-[1-[2-methyl-5-[[(S)-1-(3-pyridyl)ethyl]amino]thiazolo[4,5-d]pyrimidine-7-carbonyl]azetidin-3-yl]benzamide] | < 6.00 | 6.00 to 7.00 | > 7.00 | < 6.00 |
| CC(=O)N[C@@H]1CCN(C(=O)c2nc(N[C@@H](C)c3cncc(F)c3)nc3nc(C)sc23)C1 [Example 30, N—((R)-1-(5-(((S)-1-(5-Fluoropyridin-3-yl)ethyl)amino)-2-methylthiazolo[4,5-d]pyrimidine-7-carbonyl)pyrrolidin-3-yl)acetamide] | < 6.00 | 6.00 to 7.00 | < 6.00 | < 6.00 |
| Cc1nc2nc(N[C@@H](C)c3cccnc3)nc(C(=O)N3CC(NC(=O)C4CCC4)C3)c2s1 [Example 75, N-[1-[2-Methyl-5-[[(S)-1-(3-pyridyl)ethyl]amino]thiazolo[4,5-d]pyrimidine-7-carbonyl]azetidin-3-yl]cyclobutanecarboxamide] | < 6.00 | 6.00 to 7.00 | > 7.00 | < 6.00 |
| Cc1nc2nc(N[C@@H](C)c3cncc(F)c3)nc(C(=O)N3CC[C@H](O)C3)c2s1 [Example 4, (5-(((S)-1-(5-Fluoropyridin-3-yl)ethyl)amino)-2-methylthiazolo[4,5-d]pyrimidin-7-yl)((S)-3-hydroxypyrrolidin-1-yl)methanone] | < 6.00 | > 7.00 | < 6.00 | < 6.00 |
| CC(=O)Nc1ccc(CCNC(=O)c2nc(N[C@@H](C)c3cncc(F)c3)nc3nc(C)sc23)cc1 [Example 24, (S)—N-(4-Acetamidophenethyl)-5-((1-(5-fluoropyridin-3-yl)ethyl)amino)-2-methylthiazolo[4,5-d]pyrimidine-7-carboxamide] | < 6.00 | > 7.00 | < 6.00 | < 6.00 |
| Cc1nc2nc(N[C@@H](C)c3cccnc3)nc(C(=O)N3CC(NC(=O)c4ccccc4)C3)c2s1 [Example 73, N-[1-[2-Methyl-5-[[(S)-1-(3-pyridyl)ethyl]amino]thiazolo[4,5-d]pyrimidine-7-carbonyl]azetidin-3-yl]benzamide] | 6.00 to 7.00 | 6.00 to 7.00 | > 7.00 | < 6.00 |
| CO[C@H]1CCN(C(=O)c2nc(N[C@@H](C)c3cncc(F)c3)nc3nc(C)sc23)C1 [Example 41, (5-(((S)-1-(5-Fluoropyridin-3-yl)ethyl)amino)-2-methylthiazolo[4,5-d]pyrimidin-7-yl)((S)-3-methoxypyrrolidin-1-yl)methanone] | < 6.00 | > 7.00 | < 6.00 | < 6.00 |
| Cc1nc2nc(N[C@@H](C)c3cncc(F)c3)nc(C(=O)N3CC(NC(=O)C4(C)CC4)C3)c2s1 [Example 54, (S)—N-(1-(5-((1-(5-Fluoropyridin-3-yl)ethyl)amino)-2-methylthiazolo[4,5-d]pyrimidine-7-carbonyl)azetidin-3-yl)-1-methylcyclopropane-1-carboxamide] | > 7.00 | > 7.00 | > 7.00 | < 6.00 |
| Cc1nc2nc(N[C@@H](C)c3cccnc3)nc(C(=O)N3CCCC3)c2s1 [Example 6, (S)-(2-Methyl-5-((1-(pyridin-3-yl)ethyl)amino)thiazolo[4,5-d]pyrimidin-7-yl)(pyrrolidin-1-yl)methanone] | 6.00 to 7.00 | > 7.00 | 6.00 to 7.00 | < 6.00 |
| Cc1nc2nc(N[C@@H](C)c3cncc(F)c3)nc(C(=O)NC[C@@H](C)O)c2s1 [Example 3, 5-(((S)-1-(5-Fluoropyridin-3-yl)ethyl)amino)-N—((R)-2-hydroxypropyl)-2-methylthiazolo[4,5-d]pyrimidine-7-carboxamide] | 6.00 to 7.00 | > 7.00 | 6.00 to 7.00 | 6.00 to 7.00 |
| Cc1nc2nc(N[C@@H](C)c3cncc(F)c3)nc(C(=O)N3CC(NC(=O)NC(C)(C)C)C3)c2s1 [Example 57, (S)-1-(tert-Butyl)-3-(1-(5-((1-(5-fluoropyridin-3-yl)ethyl)amino)-2-methylthiazolo[4,5-d]pyrimidine-7-carbonyl)azetidin-3-yl)urea] | 6.00 to 7.00 | > 7.00 | > 7.00 | < 6.00 |
| Cc1nc2nc(N[C@@H](C)c3cccnc3)nc(C(=O)N3CC[C@@H](O)C3)c2s1 [Example 16, ((R)-3-Hydroxypyrrolidin-1-yl)(2-methyl-5-(((S)-1-(pyridin-3-yl)ethyl)amino)thiazolo[4,5-d]pyrimidin-7-yl)methanone] | < 6.00 | > 7.00 | < 6.00 | < 6.00 |
| Cc1nc2nc(N[C@@H](C)c3cncc(F)c3)nc(C(=O)N3CC(NC(=O)Nc4ccccc4)C3)c2s1 [Example 65, (S)-1-(1-(5-((1-(5-Fluoropyridin-3-yl)ethyl)amino)-2-methylthiazolo[4,5-d]pyrimidine-7-carbonyl)azetidin-3-yl)-3-phenylurea] | 6.00 to 7.00 | 6.00 to 7.00 | > 7.00 | < 6.00 |
| Cc1nc2nc(N[C@@H](C)c3cncc(F)c3)nc(C(=O)N3CC[C@@H](CO)C3)c2s1 [Example 49, (5-(((S)-1-(5-Fluoropyridin-3-yl)ethyl)amino)-2-methylthiazolo[4,5-d]pyrimidin-7-yl)((R)-3-(hydroxymethyl)pyrrolidin-1-yl)methanone] | < 6.00 | > 7.00 | < 6.00 | < 6.00 |
| Cc1nc2nc(N[C@@H](C)c3cncc(F)c3)nc(C(=O)N3CC(NC(=O)c4ccccc4)C3)c2s1 [Example 58, (S)—N-(1-(5-((1-(5-Fluoropyridin-3-yl)ethyl)amino)-2-methylthiazolo[4,5-d]pyrimidine-7-carbonyl)azetidin-3-yl)benzamide] | > 7.00 | > 7.00 | > 7.00 | < 6.00 |
| Cc1nc2nc(N[C@@H](C)c3cncc(F)c3)nc(C(=O)N3CC(NC(=O)C4CCCC4)C3)c2s1 [Example 55, (S)—N-(1-(5-((1-(5-Fluoropyridin-3-yl)ethyl)amino)-2-methylthiazolo[4,5-d]pyrimidine-7-carbonyl)azetidin-3-yl)cyclopentanecarboxamide] | > 7.00 | > 7.00 | > 7.00 | < 6.00 |
